Measurements taken from the supplement of paper PMC12325586.

Tested on: MIA PaCa-2
Method: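 MIA PaCa-2 Tet-on shOFD1 pancreatic cancer cells (2000 cells/well, 96-well) were treated with Selleck FDA-approved library compounds at 0, 1, 5, 10, 25 and 50 µM, with extra concentrations added where needed, for 72 h at 37 °C. Knockdown wells also received 100 ng/mL doxycycline; control wells received DMSO without doxycycline. Viability was read by CCK-8 absorbance at 450 nm and normalised to DMSO control wells. IC50 was fitted in GraphPad Prism as a 4-parameter logistic with bottom fixed at 0 and top fixed at 1; at least 3 technical replicate wells per condition.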

[1] = OFD1 knockdown: no (no doxycycline)
[2] = OFD1 knockdown: yes (Tet-on shOFD1, 100 ng/mL doxycycline)

CC(C)(C)c1cc(NC(=O)Nc2ccc(-c3cn4c(n3)sc3cc(OCCN5CCOCC5)ccc34)cc2)no1 [S1526]
IC50 cell viability [1]: 13.8 µM | IC50 cell viability [2]: 14.4 µM

CO[C@H]1C[C@@H]2CC[C@@H](C)[C@@](O)(O2)C(=O)C(=O)N2CCCC[C@H]2C(=O)O[C@H]([C@H](C)C[C@@H]2CC[C@@H](OC(=O)C(C)(CO)CO)[C@H](OC)C2)CC(=O)[C@H](C)/C=C(\C)[C@@H](O)[C@@H](OC)C(=O)[C@H](C)C[C@H](C)/C=C/C=C/C=C/1C [S1044]
IC50 cell viability [1]: 27 µM | IC50 cell viability [2]: 24 µM

NC(=O)C1CCCc2c1[nH]c1ccc(Cl)cc21 (centres undefined) [S1541]
IC50 cell viability [1]: 70.7 µM | IC50 cell viability [2]: 65 µM

CNCc1ccc(-c2[nH]c3cc(F)cc4c3c2CCNC4=O)cc1 [S1098]
IC50 cell viability [1]: 31.8 µM | IC50 cell viability [2]: 18.9 µM

Cc1ccc(NC(=O)c2ccc(CN3CCN(C)CC3)cc2)cc1Nc1nccc(-c2cccnc2)n1 [S2475]
IC50 cell viability [1]: 6.98 µM | IC50 cell viability [2]: 6.56 µM

COc1cc([C@@H]2c3cc4c(cc3[C@@H](O[C@@H]3O[C@@H]5CO[C@@H](c6cccs6)O[C@H]5[C@H](O)[C@H]3O)[C@H]3COC(=O)[C@H]23)OCO4)cc(OC)c1O [S1787]
IC50 cell viability [1]: 0.62 µM | IC50 cell viability [2]: 0.59 µM

COc1c(C)c2c(c(O)c1C/C=C(\C)CCC(=O)O)C(=O)OC2 [S2487]
IC50 cell viability [1]: 10.9 µM | IC50 cell viability [2]: 9.95 µM

CC1(C)O[C@@H]2C[C@H]3[C@@H]4CCC5=CC(=O)C=C[C@]5(C)[C@@]4(F)[C@@H](O)C[C@]3(C)[C@]2(C(=O)CO)O1 [S1628]
IC50 cell viability [1]: 23 µM | IC50 cell viability [2]: 22.1 µM

NC(=O)c1ccc(I)c([N+](=O)[O-])c1 [S1087]
IC50 cell viability [1]: 69.1 µM | IC50 cell viability [2]: 51.3 µM

CCc1c2c(nc3ccc(OC(=O)N4CCC(N5CCCCC5)CC4)cc13)-c1cc3c(c(=O)n1C2)COC(=O)[C@]3(O)CC [S1198]
IC50 cell viability [1]: 24.5 µM | IC50 cell viability [2]: 20 µM

Nc1ccccc1NC(=O)c1ccc(CNc2nccc(-c3cccnc3)n2)cc1 [S1122]
IC50 cell viability [1]: 1.29 µM | IC50 cell viability [2]: 1.07 µM

CC/C(=C(\c1ccccc1)c1ccc(OCCN(C)C)cc1)c1ccccc1 [S1972]
IC50 cell viability [1]: 42 µM | IC50 cell viability [2]: 36.7 µM

Nc1cccc2c1CN(C1CCC(=O)NC1=O)C2=O (centres undefined) [S1029]
IC50 cell viability [1]: 44 µM | IC50 cell viability [2]: 42.9 µM

CC(=O)O[C@H]1C(=O)[C@@]2(C)[C@H]([C@H](OC(=O)c3ccccc3)[C@]3(O)C[C@H](OC(=O)[C@H](O)[C@@H](NC(=O)c4ccccc4)c4ccccc4)C(C)=C1C3(C)C)[C@]1(OC(C)=O)CO[C@@H]1C[C@@H]2O [S1150]
IC50 cell viability [1]: 19 µM | IC50 cell viability [2]: 17.6 µM

Cc1nc(-c2ccc(OCC(C)C)c(C#N)c2)sc1C(=O)O [S1547]
IC50 cell viability [1]: 12.4 µM | IC50 cell viability [2]: 12.3 µM

C[C@H]1C[C@H]2[C@@H]3CCC4=CC(=O)C=C[C@]4(C)[C@H]3C(=O)C[C@]2(C)[C@@]1(O)C(=O)CO [S1689]
IC50 cell viability [1]: 17.6 µM | IC50 cell viability [2]: 16.8 µM

Cc1c(C(=O)Nc2ccc(N3C[C@@H](C)O[C@@H](C)C3)nc2)cccc1-c1ccc(OC(F)(F)F)cc1 [S2151]
IC50 cell viability [1]: 3.41 µM | IC50 cell viability [2]: 3.2 µM

COc1cc([C@@H]2c3cc4c(cc3[C@@H](O[C@@H]3O[C@@H]5CO[C@@H](C)O[C@H]5[C@H](O)[C@H]3O)[C@H]3COC(=O)[C@H]23)OCO4)cc(OC)c1O [S1225]
IC50 cell viability [1]: 2.31 µM | IC50 cell viability [2]: 2.03 µM

CC[C@H](NC(=O)[C@H](C)NC)C(=O)N1C[C@@H](O)C[C@H]1Cc1c(-c2[nH]c3cc(F)ccc3c2C[C@@H]2C[C@H](O)CN2C(=O)[C@H](CC)NC(=O)[C@H](C)NC)[nH]c2cc(F)ccc12 [S7015]
IC50 cell viability [1]: 21.9 µM | IC50 cell viability [2]: 20.3 µM

CCN(CC)CCNC(=O)c1c(C)[nH]c(/C=C2\C(=O)Nc3ccc(F)cc32)c1C [S1042]
IC50 cell viability [1]: 2.85 µM | IC50 cell viability [2]: 2.98 µM

CC(C)C[C@H](NC(=O)CNC(=O)c1cc(Cl)ccc1Cl)B(O)O [S2180]
IC50 cell viability [1]: 45.1 µM | IC50 cell viability [2]: 39.6 µM

CCc1ccc(CCOc2ccc(CC3SC(=O)NC3=O)cc2)nc1 (centres undefined) [S2590]
IC50 cell viability [1]: 2.72 µM | IC50 cell viability [2]: 3.16 µM
